From the NIST ThermoML archive (doi:10.1021/je800334m)

Assay: excess molar enthalpy (molar enthalpy of mixing); xn = mol fraction of the nth substance listed
Conditions: Liquid, Flow calorimetry

CN(C)CCO [2-(N,N-dimethylamino)ethanol] + CO
Conditions | excess molar enthalpy [kJ/mol]
298.2 K, 100 kPa, x1 = 0.0499 | -0.252
298.2 K, 100 kPa, x1 = 0.099 | -0.453
298.2 K, 100 kPa, x1 = 0.1495 | -0.603
298.2 K, 100 kPa, x1 = 0.1981 | -0.719
298.2 K, 100 kPa, x1 = 0.2479 | -0.806
298.2 K, 100 kPa, x1 = 0.2982 | -0.865
298.2 K, 100 kPa, x1 = 0.3481 | -0.896
298.2 K, 100 kPa, x1 = 0.3968 | -0.906
298.2 K, 100 kPa, x1 = 0.4466 | -0.897
298.2 K, 100 kPa, x1 = 0.4972 | -0.867
298.2 K, 100 kPa, x1 = 0.5483 | -0.826
298.2 K, 100 kPa, x1 = 0.5992 | -0.767
298.2 K, 100 kPa, x1 = 0.6494 | -0.701
298.2 K, 100 kPa, x1 = 0.6981 | -0.622
298.2 K, 100 kPa, x1 = 0.7506 | -0.532
298.2 K, 100 kPa, x1 = 0.8007 | -0.438
298.2 K, 100 kPa, x1 = 0.8477 | -0.343
298.2 K, 100 kPa, x1 = 0.8977 | -0.236
298.2 K, 100 kPa, x1 = 0.9512 | -0.113
298.2 K, 10000 kPa, x1 = 0.05 | -0.276
298.2 K, 10000 kPa, x1 = 0.0993 | -0.469
298.2 K, 10000 kPa, x1 = 0.1479 | -0.613
298.2 K, 10000 kPa, x1 = 0.1986 | -0.731
298.2 K, 10000 kPa, x1 = 0.2485 | -0.813
298.2 K, 10000 kPa, x1 = 0.2961 | -0.865
298.2 K, 10000 kPa, x1 = 0.3458 | -0.896
298.2 K, 10000 kPa, x1 = 0.3976 | -0.906
298.2 K, 10000 kPa, x1 = 0.4474 | -0.895
298.2 K, 10000 kPa, x1 = 0.4981 | -0.867
298.2 K, 10000 kPa, x1 = 0.5447 | -0.827
298.2 K, 10000 kPa, x1 = 0.5952 | -0.771
298.2 K, 10000 kPa, x1 = 0.645 | -0.705
298.2 K, 10000 kPa, x1 = 0.6988 | -0.621
298.2 K, 10000 kPa, x1 = 0.7452 | -0.541
298.2 K, 10000 kPa, x1 = 0.7948 | -0.451
298.2 K, 10000 kPa, x1 = 0.8481 | -0.342
298.2 K, 10000 kPa, x1 = 0.898 | -0.235
313.2 K, 100 kPa, x1 = 0.0499 | -0.259
313.2 K, 100 kPa, x1 = 0.099 | -0.457
313.2 K, 100 kPa, x1 = 0.1495 | -0.621
313.2 K, 100 kPa, x1 = 0.1981 | -0.74
313.2 K, 100 kPa, x1 = 0.2479 | -0.823
313.2 K, 100 kPa, x1 = 0.2982 | -0.88
313.2 K, 100 kPa, x1 = 0.3481 | -0.909
313.2 K, 100 kPa, x1 = 0.3968 | -0.917
313.2 K, 100 kPa, x1 = 0.4466 | -0.909
313.2 K, 100 kPa, x1 = 0.4972 | -0.881
313.2 K, 100 kPa, x1 = 0.5483 | -0.834
313.2 K, 100 kPa, x1 = 0.5992 | -0.781
313.2 K, 100 kPa, x1 = 0.6494 | -0.71
313.2 K, 100 kPa, x1 = 0.6981 | -0.632
313.2 K, 100 kPa, x1 = 0.7506 | -0.545
313.2 K, 100 kPa, x1 = 0.8007 | -0.445
313.2 K, 100 kPa, x1 = 0.8477 | -0.348
313.2 K, 100 kPa, x1 = 0.8977 | -0.237
313.2 K, 100 kPa, x1 = 0.9512 | -0.117
313.2 K, 10000 kPa, x1 = 0.0502 | -0.261
313.2 K, 10000 kPa, x1 = 0.0996 | -0.463
313.2 K, 10000 kPa, x1 = 0.1484 | -0.618
313.2 K, 10000 kPa, x1 = 0.1992 | -0.742
313.2 K, 10000 kPa, x1 = 0.2491 | -0.829
313.2 K, 10000 kPa, x1 = 0.2968 | -0.884
313.2 K, 10000 kPa, x1 = 0.3465 | -0.918
313.2 K, 10000 kPa, x1 = 0.3983 | -0.928
313.2 K, 10000 kPa, x1 = 0.4482 | -0.917
313.2 K, 10000 kPa, x1 = 0.4989 | -0.89
313.2 K, 10000 kPa, x1 = 0.5455 | -0.851
313.2 K, 10000 kPa, x1 = 0.596 | -0.795
313.2 K, 10000 kPa, x1 = 0.6457 | -0.727
313.2 K, 10000 kPa, x1 = 0.6995 | -0.64
313.2 K, 10000 kPa, x1 = 0.7458 | -0.558
313.2 K, 10000 kPa, x1 = 0.7953 | -0.464
313.2 K, 10000 kPa, x1 = 0.8485 | -0.354
313.2 K, 10000 kPa, x1 = 0.8983 | -0.242
328.2 K, 100 kPa, x1 = 0.1479 | -0.592
328.2 K, 100 kPa, x1 = 0.1972 | -0.714
328.2 K, 100 kPa, x1 = 0.2469 | -0.803
328.2 K, 100 kPa, x1 = 0.2976 | -0.86
328.2 K, 100 kPa, x1 = 0.3469 | -0.894
328.2 K, 100 kPa, x1 = 0.3974 | -0.903
328.2 K, 100 kPa, x1 = 0.4466 | -0.895
328.2 K, 100 kPa, x1 = 0.4956 | -0.865
328.2 K, 100 kPa, x1 = 0.5465 | -0.822
328.2 K, 100 kPa, x1 = 0.5963 | -0.766
328.2 K, 100 kPa, x1 = 0.6473 | -0.7
328.2 K, 10000 kPa, x1 = 0.1487 | -0.593
328.2 K, 10000 kPa, x1 = 0.1983 | -0.717
328.2 K, 10000 kPa, x1 = 0.2481 | -0.81
328.2 K, 10000 kPa, x1 = 0.2973 | -0.868
328.2 K, 10000 kPa, x1 = 0.3465 | -0.903
328.2 K, 10000 kPa, x1 = 0.397 | -0.911
328.2 K, 10000 kPa, x1 = 0.446 | -0.906
328.2 K, 10000 kPa, x1 = 0.4972 | -0.88
328.2 K, 10000 kPa, x1 = 0.5455 | -0.84
328.2 K, 10000 kPa, x1 = 0.5979 | -0.783
328.2 K, 10000 kPa, x1 = 0.6457 | -0.72
328.2 K, 10000 kPa, x1 = 0.6973 | -0.642

CN(C)CCO [2-(N,N-dimethylamino)ethanol] + CCO
excess molar enthalpy [kJ/mol]
Conditions | 298.2 K | 313.2 K | 328.2 K
100 kPa, x1 = 0.0717 | -0.147 | -0.154 | –
100 kPa, x1 = 0.1392 | -0.242 | -0.26 | –
100 kPa, x1 = 0.2028 | – | -0.329 | –
100 kPa, x1 = 0.2034 | – | – | -0.311
100 kPa, x1 = 0.2054 | -0.319 | – | –
100 kPa, x1 = 0.2654 | – | – | -0.357
100 kPa, x1 = 0.2665 | -0.366 | -0.381 | –
100 kPa, x1 = 0.3253 | – | – | -0.385
100 kPa, x1 = 0.3264 | -0.392 | -0.409 | –
100 kPa, x1 = 0.3839 | – | – | -0.399
100 kPa, x1 = 0.3845 | -0.408 | -0.425 | –
100 kPa, x1 = 0.4385 | – | – | -0.403
100 kPa, x1 = 0.4399 | -0.411 | -0.426 | –
100 kPa, x1 = 0.4916 | -0.404 | -0.419 | –
100 kPa, x1 = 0.4924 | – | – | -0.393
100 kPa, x1 = 0.5427 | -0.39 | -0.403 | -0.382
100 kPa, x1 = 0.591 | – | – | -0.358
100 kPa, x1 = 0.5925 | -0.371 | -0.381 | –
100 kPa, x1 = 0.6393 | – | – | -0.334
100 kPa, x1 = 0.6409 | -0.344 | -0.354 | –
100 kPa, x1 = 0.683 | – | -0.325 | –
100 kPa, x1 = 0.6848 | – | – | -0.304
100 kPa, x1 = 0.6874 | -0.312 | – | –
100 kPa, x1 = 0.727 | – | -0.291 | –
100 kPa, x1 = 0.7296 | – | – | -0.272
100 kPa, x1 = 0.7314 | -0.278 | – | –
100 kPa, x1 = 0.7727 | -0.248 | -0.252 | –
100 kPa, x1 = 0.8108 | – | -0.215 | –
100 kPa, x1 = 0.8157 | -0.204 | – | –
100 kPa, x1 = 0.8553 | -0.168 | -0.168 | –
100 kPa, x1 = 0.8911 | -0.13 | -0.129 | –
100 kPa, x1 = 0.9281 | -0.085 | -0.0875 | –
100 kPa, x1 = 0.9663 | -0.0372 | -0.0412 | –
10000 kPa, x1 = 0.0699 | – | -0.155 | –
10000 kPa, x1 = 0.0721 | -0.155 | – | –
10000 kPa, x1 = 0.1399 | -0.257 | -0.265 | –
10000 kPa, x1 = 0.2039 | -0.321 | -0.336 | –
10000 kPa, x1 = 0.2044 | – | – | -0.315
10000 kPa, x1 = 0.265 | – | -0.384 | –
10000 kPa, x1 = 0.2667 | – | – | -0.36
10000 kPa, x1 = 0.2678 | -0.367 | – | –
10000 kPa, x1 = 0.3249 | – | -0.414 | –
10000 kPa, x1 = 0.3267 | – | – | -0.388
10000 kPa, x1 = 0.3279 | -0.4 | – | –
10000 kPa, x1 = 0.3829 | -0.413 | -0.428 | –
10000 kPa, x1 = 0.3835 | – | – | -0.403
10000 kPa, x1 = 0.4381 | -0.417 | -0.43 | -0.404
10000 kPa, x1 = 0.4919 | – | – | -0.395
10000 kPa, x1 = 0.4933 | -0.41 | -0.422 | –
10000 kPa, x1 = 0.5421 | – | – | -0.381
10000 kPa, x1 = 0.5443 | -0.395 | -0.407 | –
10000 kPa, x1 = 0.5902 | – | -0.386 | –
10000 kPa, x1 = 0.5926 | – | – | -0.359
10000 kPa, x1 = 0.5941 | -0.373 | – | –
10000 kPa, x1 = 0.6383 | -0.349 | -0.358 | -0.333
10000 kPa, x1 = 0.6845 | -0.319 | -0.327 | –
10000 kPa, x1 = 0.7283 | -0.286 | -0.293 | –
10000 kPa, x1 = 0.7739 | -0.247 | -0.253 | –
10000 kPa, x1 = 0.8118 | -0.211 | -0.216 | –
10000 kPa, x1 = 0.8511 | -0.171 | -0.176 | –
10000 kPa, x1 = 0.8917 | -0.128 | -0.13 | –
10000 kPa, x1 = 0.9285 | -0.0847 | -0.088 | –
10000 kPa, x1 = 0.9665 | -0.0378 | -0.0414 | –
